What all share (test): relative viability (nuclei count vs DMSO), 5 days (fraction); higher = more cells survive
Compound in test [1]: C1CC2=C(C1)C=C(C=C2)OC3=NC(=C4C(=N3)N(C=N4)CC5=CC=C(C=C5)C6=CC=CC=C6)N[C@@H](CC7=CC=CC=C7)CO [QS11] + CCNC(=O)c1noc(-c2cc(C(C)C)c(O)cc2O)c1-c1ccc(CN2CCOCC2)cc1 [Luminespib] (partner 0.01 µM)
The essentials: (§1)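 Lung cancer cell lines, seeded in 1536-well plates, were treated the following day by pin tool with a single drug or with five library-drug doses (not always all listed) in √10 steps on top of a fixed anchor-drug dose. Cells were fixed and nuclei stained in one step after 5 days, and nuclei were counted. Relative viability is the nuclei count for treated wells divided by that for vehicle wells, reported as medians of duplicate plates.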

Compound in test [2]: CC1=C(C=C(C=C1)NC(=O)C2=CC(=CC=C2)C(C)(C)C#N)NC3=CC4=C(C=C3)N=CN(C4=O)C [AZ628] + Nc1ncn([C@H]2C[C@H](O)[C@@H](CO)O2)c(=O)n1 [Decitabine] (partner 2 µM)
The essentials:
as §1

Compound in test [3]: CC1=C(C=C(C=C1)NC(=O)C2=CC(=CC=C2)C(C)(C)C#N)NC3=CC4=C(C=C3)N=CN(C4=O)C [AZ628] + O=C(CCCCCCC(=O)Nc1ccccc1)NO [Vorinostat] (partner 1 µM)
The essentials:
as §1

Compound in test [4]: C[As](C)SC[C@H](NC(=O)CC[C@H](N)C(=O)O)C(=O)NCC(=O)O [Darinaparsin] + CC(C)C[C@H](NC(=O)[C@H](Cc1ccccc1)NC(=O)c1cnccn1)B(O)O [Bortezomib] (partner 0.002 µM)
The essentials: as §1

On to NCI-H1437, for which the relative viability in test [1] (first compound 0.08 µM) turned out to be 1.15; in test [1] (first compound 0.253 µM), 1.2; in test [1] (first compound 0.8 µM), 1.11; in test [1] (first compound 2.53 µM), 1.05; in test [1] (first compound 8 µM), 0.947; in test [2] (first compound 0.08 µM) it was 0.606. In addition, the relative viability in test [2] (first compound 0.253 µM) amounted to 0.548; in test [2] (first compound 0.8 µM), 0.531; in test [2] (first compound 2.53 µM), 0.613; in test [2] (first compound 8 µM), 0.659; in test [3] (first compound 0.08 µM) it was 0.834; in test [3] (first compound 0.253 µM), 0.765. The relative viability came to 0.752 in test [3] (first compound 0.8 µM); 0.829 in test [3] (first compound 2.53 µM); 0.776 in test [3] (first compound 8 µM); 0.562 in test [4] (first compound 0.08 µM); 0.558 in test [4] (first compound 0.8 µM); 0.468 in test [4] (first compound 2.53 µM). In addition, in test [4] (first compound 8 µM), the relative viability is 0.584.
As to COR-L23, the relative viability in test [1] (first compound 0.08 µM) is 0.718; in test [1] (first compound 0.253 µM) it was 0.683; in test [1] (first compound 0.8 µM), 0.673; in test [1] (first compound 2.53 µM), 0.552; in test [1] (first compound 8 µM), 0.576; in test [2] (first compound 0.08 µM), 0.471. For the same cell line, the relative viability turned out to be 0.43 in test [2] (first compound 0.253 µM); 0.349 in test [2] (first compound 0.8 µM); 0.453 in test [2] (first compound 2.53 µM); 0.27 in test [2] (first compound 8 µM); 0.528 in test [3] (first compound 0.08 µM); 0.426 in test [3] (first compound 0.253 µM). Further, the relative viability in test [3] (first compound 0.8 µM) came to 0.491; in test [3] (first compound 2.53 µM), 0.473; in test [3] (first compound 8 µM), 0.321; in test [4] (first compound 0.08 µM) it was 1.64; in test [4] (first compound 0.8 µM), 0.995; in test [4] (first compound 2.53 µM), 0.77. Also, the relative viability in test [4] (first compound 8 µM) worked out at 1.17.
Regarding NCI-H1975, the relative viability in test [1] (first compound 0.08 µM) is 0.199; in test [1] (first compound 0.253 µM), 0.33; in test [1] (first compound 0.8 µM), 0.275; in test [1] (first compound 2.53 µM) it was 0.281; in test [1] (first compound 8 µM) it was 0.2; in test [2] (first compound 0.08 µM), 0.402. For the same cell line, the relative viability in test [2] (first compound 0.253 µM) was 0.358; in test [2] (first compound 0.8 µM) it was 0.344; in test [2] (first compound 2.53 µM), 0.338; in test [2] (first compound 8 µM) it was 0.265; in test [3] (first compound 0.08 µM), 0.62; in test [3] (first compound 0.253 µM) it was 0.668. For the same cell line, the relative viability in test [3] (first compound 0.8 µM) was determined as 0.679; in test [3] (first compound 2.53 µM) it was 0.658; in test [3] (first compound 8 µM), 0.42; in test [4] (first compound 0.08 µM), 0.444; in test [4] (first compound 0.8 µM), 0.4; in test [4] (first compound 2.53 µM), 0.291. Besides, the relative viability in test [4] (first compound 8 µM) was determined as 0.306.
Turning to NCI-H1666, the relative viability in test [1] (first compound 0.08 µM) was determined as 1.01; in test [1] (first compound 0.253 µM) it was 1.1; in test [1] (first compound 0.8 µM) it was 0.702; in test [1] (first compound 2.53 µM) it was 0.728; in test [1] (first compound 8 µM), 0.519; in test [2] (first compound 0.08 µM) it was 0.744. The relative viability in test [2] (first compound 0.253 µM) turned out to be 0.691; in test [2] (first compound 0.8 µM), 0.625; in test [2] (first compound 2.53 µM), 0.62; in test [2] (first compound 8 µM), 0.657; in test [3] (first compound 0.08 µM) it was 1.07; in test [3] (first compound 0.253 µM), 0.953. Besides, the relative viability in test [3] (first compound 0.8 µM) came to 0.995; in test [3] (first compound 2.53 µM), 0.764; in test [3] (first compound 8 µM), 0.916; in test [4] (first compound 0.08 µM), 0.916; in test [4] (first compound 0.8 µM), 0.882; in test [4] (first compound 2.53 µM), 0.978. Besides, in test [4] (first compound 8 µM), the relative viability is 0.847.
In the case of A-427, the relative viability in test [1] (first compound 0.08 µM) was 0.918; in test [1] (first compound 0.253 µM), 0.885; in test [1] (first compound 2.53 µM), 1.02; in test [1] (first compound 8 µM), 1.05; in test [2] (first compound 0.08 µM), 0.58; in test [2] (first compound 0.253 µM), 0.582. Further, the relative viability in test [2] (first compound 0.8 µM) amounted to 0.494; in test [2] (first compound 2.53 µM), 0.52; in test [2] (first compound 8 µM) it was 0.451; in test [3] (first compound 0.08 µM), 1.02; in test [3] (first compound 0.253 µM) it was 0.811; in test [3] (first compound 0.8 µM), 0.82. Further, the relative viability in test [3] (first compound 2.53 µM) was determined as 0.787; in test [3] (first compound 8 µM), 0.437; in test [4] (first compound 0.08 µM) it was 1.05; in test [4] (first compound 0.8 µM), 0.977; in test [4] (first compound 2.53 µM), 0.954; in test [4] (first compound 8 µM) it was 1.08.
Consider EKVX, for which the relative viability is 0.907 in test [1] (first compound 0.08 µM); 0.732 in test [1] (first compound 0.253 µM); 0.848 in test [1] (first compound 2.53 µM); 1.03 in test [1] (first compound 8 µM); 0.367 in test [2] (first compound 0.08 µM); 0.369 in test [2] (first compound 0.253 µM). For the same cell line, the relative viability in test [2] (first compound 0.8 µM) is 0.401; in test [2] (first compound 2.53 µM) it was 0.266; in test [2] (first compound 8 µM), 0.287; in test [3] (first compound 0.08 µM), 0.952; in test [3] (first compound 0.253 µM), 0.698; in test [3] (first compound 0.8 µM), 0.848. Further, the relative viability in test [3] (first compound 2.53 µM) came to 0.579; in test [3] (first compound 8 µM), 0.53; in test [4] (first compound 0.08 µM), 1.14; in test [4] (first compound 0.8 µM) it was 0.96; in test [4] (first compound 2.53 µM), 0.946; in test [4] (first compound 8 µM), 1.41.
For NCI-H650, the relative viability in test [1] (first compound 0.08 µM) is 0.758; in test [1] (first compound 0.253 µM), 0.806; in test [1] (first compound 0.8 µM), 0.802; in test [1] (first compound 2.53 µM), 0.654; in test [1] (first compound 8 µM), 0.868; in test [2] (first compound 0.08 µM) it was 0.349. Moreover, the relative viability in test [2] (first compound 0.253 µM) was found to be 0.396; in test [2] (first compound 0.8 µM) it was 0.46; in test [2] (first compound 2.53 µM), 0.335; in test [2] (first compound 8 µM) it was 0.336; in test [3] (first compound 0.08 µM) it was 0.454; in test [3] (first compound 0.253 µM), 0.63. Besides, the relative viability in test [3] (first compound 0.8 µM) turned out to be 0.554; in test [3] (first compound 2.53 µM) it was 0.673; in test [3] (first compound 8 µM), 0.44; in test [4] (first compound 0.08 µM), 0.881; in test [4] (first compound 0.8 µM), 0.894; in test [4] (first compound 2.53 µM), 0.728. For the same cell line, the relative viability in test [4] (first compound 8 µM) was 0.776.
For the cell line NCI-H2087, the relative viability in test [1] (first compound 0.08 µM) turned out to be 0.136; in test [1] (first compound 0.253 µM), 0.186; in test [1] (first compound 2.53 µM), 0.158; in test [1] (first compound 8 µM), 0.172; in test [2] (first compound 0.08 µM), 0.267; in test [2] (first compound 0.253 µM) it was 0.153. The relative viability in test [2] (first compound 0.8 µM) is 0.184; in test [2] (first compound 2.53 µM), 0.137; in test [2] (first compound 8 µM), 0.146; in test [3] (first compound 0.08 µM), 1.02; in test [3] (first compound 0.253 µM), 0.723; in test [3] (first compound 0.8 µM), 0.743. In addition, the relative viability was found to be 0.527 in test [3] (first compound 2.53 µM); 0.148 in test [3] (first compound 8 µM); 1.02 in test [4] (first compound 0.08 µM); 0.944 in test [4] (first compound 0.8 µM); 0.948 in test [4] (first compound 2.53 µM); 1.13 in test [4] (first compound 8 µM).

(Values after the supplement of paper PMC10307832.)
